# Measured values from ChEMBL document CHEMBL3390840, “Expanding the horizon of chemotherapeutic targets: From MDM2 to MDMX (MDM4)” (Medchemcomm, 2011).
# What was measured:
# [1] = target: MDMX (Homo sapiens, UniProt O15151); assay: Inhibition of human recombinant MDMX (1 to 185) after 30 mins by fluorescence polarization assay
# [2] = target: E3 ubiquitin-protein ligase Mdm2 (Homo sapiens, UniProt Q00987); assay: Inhibition of human full length GST-tagged MDM2 expressed in Escherichia coli TG1 after 15 mins by ELISA
# [3] = target: T1, Protein Mdm4 (Homo sapiens, UniProt O15151); assay: Inhibition of human full length GST-tagged MDMX expressed in Escherichia coli TG1 after 15 mins by ELISA
# T1 sequence (O15151 whole entry): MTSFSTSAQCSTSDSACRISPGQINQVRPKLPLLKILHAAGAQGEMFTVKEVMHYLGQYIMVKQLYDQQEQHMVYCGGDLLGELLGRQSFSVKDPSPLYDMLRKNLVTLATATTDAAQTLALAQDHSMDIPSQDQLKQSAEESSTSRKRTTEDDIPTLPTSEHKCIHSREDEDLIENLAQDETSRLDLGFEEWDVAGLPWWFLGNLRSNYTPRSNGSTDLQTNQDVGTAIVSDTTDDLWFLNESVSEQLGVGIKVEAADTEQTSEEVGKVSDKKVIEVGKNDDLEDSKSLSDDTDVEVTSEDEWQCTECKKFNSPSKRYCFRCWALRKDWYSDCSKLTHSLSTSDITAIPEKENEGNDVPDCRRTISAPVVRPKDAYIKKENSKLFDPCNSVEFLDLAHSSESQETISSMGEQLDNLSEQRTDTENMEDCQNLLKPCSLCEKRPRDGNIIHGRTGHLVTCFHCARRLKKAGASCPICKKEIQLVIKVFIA
# Chain of E3 ubiquitin-protein ligase Mdm2 (Q00987 whole entry): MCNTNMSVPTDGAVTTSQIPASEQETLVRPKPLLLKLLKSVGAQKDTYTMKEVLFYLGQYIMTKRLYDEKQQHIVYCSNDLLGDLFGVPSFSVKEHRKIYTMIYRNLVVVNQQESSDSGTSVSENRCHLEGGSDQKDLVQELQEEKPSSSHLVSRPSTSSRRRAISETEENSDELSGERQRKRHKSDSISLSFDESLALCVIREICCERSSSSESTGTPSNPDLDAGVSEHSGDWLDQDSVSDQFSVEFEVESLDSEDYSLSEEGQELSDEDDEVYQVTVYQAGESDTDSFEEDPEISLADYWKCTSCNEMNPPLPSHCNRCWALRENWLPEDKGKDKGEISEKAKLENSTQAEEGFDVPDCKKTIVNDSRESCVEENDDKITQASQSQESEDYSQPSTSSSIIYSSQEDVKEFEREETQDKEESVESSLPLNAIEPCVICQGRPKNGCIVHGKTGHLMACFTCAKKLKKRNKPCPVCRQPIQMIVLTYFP
EC50 [1] [nM],IC50 [2] [nM],IC50 [3] [nM],Molecule
840,–,–,CCOc1cc(/C=C2\C(=O)N(c3ccccc3)N=C2C)cc(Cl)c1OCC(=O)OC
–,150,1650,H-MPRFMDYWEGLN-OH
